Assay results taken from US20260174863A1, “ISOMERICALLY PURE BETA-CYCLODEXTRIN DERIVATIVES AND USES THEREOF” (Beren Therapeutics P.B.C., priority 2023, published 2026).

Tests used:
[1] = test system: differentiated human THP-1 monocytes; experiment: CEC - Cholesterol Efflux Assay (abcam ab196985); format: cell-based; details: 4 h, reference standard = non-isomerically pure hydroxypropyl beta-cyclodextrin
Method: Cholesterol Efflux from differentiated human THP-1 monocytes was assessed according to the manufacturer's protocol (abcam, ab196985). Briefly, THP-1 monocytes were differentiated for 48 h in presence of 100 nM phorbol 12-myristate-13-acetate (PMA) in RPMI 1640 growth medium (10% FCS, 1% penicillin/streptomycin) in a humidified incubator (37° C., 5% CO2). Differentiated THP-1 macrophage-like cells were harvested, washed with PBS, resuspended in growth medium, seeded at 1×10^5 cells into 96-well plates, and allowed to adhere for 6h. Cells were washed with serum-free RPMI media, and labelled with 100 μL of fluorescent cholesterol labelling medium (50 uL Labeling Reagent+50 uL serum-free RPMI) for 1 h protected from light. Labeling medium was removed and replaced with 100 μL, 37° C. pre-warmed equilibration medium (50 uL Equilibration Buffer+[…] Reagent A +10 μL/mL Reagent B+50 uL serum-free RPMI) and incubated for 16±1 h in an incubator (37° C., 5% CO2). Equilibration medium was removed, and cells were washed with RPMI (w/o phenol red, w/o serum). Serum cholesterol acceptor was prepared by mixing 2 parts of Serum Treatment Reagent with 5 parts of human serum, incubated on ice for 20 minutes. The mix was centrifuged at 9,000×g for 10 minutes at 4° C., and supernatants were stored on ice until use. THP-1 cells were incubated for 4 h with 100 uL RPMI media (w/o phenol red, w/o serum), spiked with 10 uL of compound (10× stock in PBS) and 2 uL serum acceptor (2%), or RPMI media spiked with 10 uL PBS and 2 uL serum acceptor (negative control). Following incubation, plates were centrifuged and whole supernatants were transferred to an opaque 96-well plate. Remaining cells were lysed by adding 100 μL of Cell Lysis Buffer and shaking at 500 rpm for 25 minutes protected from light. Cell lysate was resuspended and transferred into an opaque 96-well. Plates containing supernatants or cell lysates were measured in a plate reader at 485 nm (excitation) and 523 nm (emission). Percent (%) cholesterol efflux was measured as RFU supernatant/(RFU supernatant +RFU cell lysate)×100%.
The cholesterol efflux from cells treated with compounds of the disclosure at concentrations of 0.1 mM, 0.3 mM and 1 mM, relative to cholesterol efflux from cells treated with a reference standard, are summarized in Table 1. In the table, A denotes compounds with a CEC of >126% of that of the reference standard and B denotes compounds with a CEC of 106% to 125% of that of the reference standard; 0 denotes compounds with a CEC of 96%-105% of that of the reference standard; and—denotes compounds with a CEC of 75%-95% of that of the reference standard. The reference standard is a non-isomerically pure hydroxypropyl beta-cyclodextrin.

[2] = test system: differentiated human THP-1 monocytes; experiment: Cytotoxicity assay, lactate dehydrogenase (LDH) release (CytoTox 96, Promega G1780); format: cell-based; details: samples from CEC assay, reference standard = non-isomerically pure hydroxypropyl beta-cyclodextrin
Method: Cytotoxicity was measured using a lactate dehydrogenase (LDH) assay, according to the manufacturer's protocol (CytoTox 96® Non-Radioactive Cytotoxicity Assay, Promega, G1780). Supernatants and cell lysates from CEC assay served as samples. Briefly, 50 uL of supernatant and cell lysates were transferred into separate transparent 96-well plates. 50 uL CytoTox 96© Reagent was added to the wells, mixed by pipetting, and incubated for 10 minutes protected from light. 50 μL of Stop Solution was added, mixed by pipetting, and absorbance (OD) was measured at 490 nm in a plate reader. Phenol red-free RPMI with 10% […] and Cell Lysis Buffer (abcam, ab196985) served as background controls. Percent (%) cytotoxicity was measured as OD supernatant/(OD supernatant+OD cell lysate)×100%.
Lactate dehydrogenase (LDH) released from cells treated with compounds of the disclosure at concentrations of 0.1 mM, 0.3 mM and 1 mM, relative to LDH) released from cells treated with a reference standard, are summarized in Table 2. In the table, A denotes compounds releasing LDH in an amount of <70% of that of the reference standard; B denotes compounds releasing LDH in an amount of 71-95% of that of the reference standard; 0 denotes compounds releasing LDH in an amount of 96%-105% of that of the reference standard; +denotes compounds releasing LDH in an amount of 106%-120% of that of the reference standard; and ++denotes compounds releasing LDH in an amount of >120% of that of the reference standard The reference standard is a non-isomerically pure hydroxypropyl beta-cyclodextrin.

`COCCO[C@H]1[C@H]2O[C@H]3[C@H](O)[C@@H](OCCOC)[C@@H](O[C@H]4[C@H](O)[C@@H](OCCOC)[C@@H](O[C@H]5[C@H](O)[C@@H](OCCOC)[C@@H](O[C@H]6[C@H](O)[C@@H](OCCOC)[C@@H](O[C@H]7[C@H](O)[C@@H](OCCOC)[C@@H](O[C@H]8[C@H](O)[C@@H](OCCOC)[C@@H](O[C@@H]([C@@H]1O)[C@@H](CO)O2)O[C@@H]8CO)O[C@@H]7CO)O[C@@H]6CO)O[C@@H]5CO)O[C@@H]4CO)O[C@@H]3CO` [Compound 1] was tested, and the “Cholesterol efflux from cells treated with compounds, relative to reference standard” value ([1]; 0.1 mM) was 0 (0 denotes compounds with a CEC of 96%-105% of that of the reference standard), the “Cholesterol efflux from cells treated with compounds, relative to reference standard” value ([1]; 0.3 mM) was 0 (0 denotes compounds with a CEC of 96%-105% of that of the reference standard) and the “Cholesterol efflux from cells treated with compounds, relative to reference standard” value ([1]; 1 mM) was 0 (0 denotes compounds with a CEC of 96%-105% of that of the reference standard). For the same compound, the “Release of lactate dehydrogenase from cells treated with compounds, relative to reference standard” value (“Release … relative to reference standard” below) ([2]; 0.1 mM) was “B (B denotes compounds releasing LDH in an amount of 71-95% of that of the reference standard)”, the “Release … relative to reference standard” value ([2]; 0.3 mM) was “B (B denotes compounds releasing LDH in an amount of 71-95% of that of the reference standard)” and the “Release … relative to reference standard” value ([2]; 1 mM) was “B (B denotes compounds releasing LDH in an amount of 71-95% of that of the reference standard)”.
For `CC(C)(O)CO[C@@H]1[C@@H](O)[C@H]2O[C@H]3[C@H](OCC(C)(C)O)[C@@H](O)[C@@H](O[C@H]4[C@H](OCC(C)(C)O)[C@@H](O)[C@@H](O[C@H]5[C@H](OCC(C)(C)O)[C@@H](O)[C@@H](O[C@H]6[C@H](OCC(C)(C)O)[C@@H](O)[C@@H](O[C@H]7[C@H](OCC(C)(C)O)[C@@H](O)[C@@H](O[C@H]8[C@H](OCC(C)(C)O)[C@@H](O)[C@@H](O[C@@H]1[C@@H](CO)O2)O[C@@H]8CO)O[C@@H]7CO)O[C@@H]6CO)O[C@@H]5CO)O[C@@H]4CO)O[C@@H]3CO` [Compound 6], the “Cholesterol efflux from cells treated with compounds, relative to reference standard” value ([1]; 0.1 mM) was 0 (0 denotes compounds with a CEC of 96%-105% of that of the reference standard), the “Cholesterol efflux from cells treated with compounds, relative to reference standard” value ([1]; 0.3 mM) was “− (—denotes compounds with a CEC of 75%-95% of that of the reference standard)” and the “Cholesterol efflux from cells treated with compounds, relative to reference standard” value ([1]; 1 mM) was “− (—denotes compounds with a CEC of 75%-95% of that of the reference standard)”. For the same compound, the “Release … relative to reference standard” value ([2]; 0.1 mM) was 0 (0 denotes compounds releasing LDH in an amount of 96%-105% of that of the reference standard), the “Release … relative to reference standard” value ([2]; 0.3 mM) was “+ (+denotes compounds releasing LDH in an amount of 106%-120% of that of the reference standard)” and the “Release … relative to reference standard” value ([2]; 1 mM) was “+ (+denotes compounds releasing LDH in an amount of 106%-120% of that of the reference standard)”.
In the case of `CC(O)CO[C@H]1[C@H]2O[C@H]3[C@H](O)[C@@H](OCC(C)O)[C@@H](O[C@H]4[C@H](O)[C@@H](OCC(C)O)[C@@H](O[C@H]5[C@H](O)[C@@H](OCC(C)O)[C@@H](O[C@H]6[C@H](O)[C@@H](OCC(C)O)[C@@H](O[C@H]7[C@H](O)[C@@H](OCC(C)O)[C@@H](O[C@H]8[C@H](O)[C@@H](OCC(C)O)[C@@H](O[C@@H]([C@@H]1O)[C@@H](CO)O2)O[C@@H]8CO)O[C@@H]7CO)O[C@@H]6CO)O[C@@H]5CO)O[C@@H]4CO)O[C@@H]3CO` (stereo partly drawn) [Compound 5], the “Cholesterol efflux from cells treated with compounds, relative to reference standard” value ([1]; 0.1 mM) is reported as “− (—denotes compounds with a CEC of 75%-95% of that of the reference standard)”, the “Cholesterol efflux from cells treated with compounds, relative to reference standard” value ([1]; 0.3 mM) is reported as “− (—denotes compounds with a CEC of 75%-95% of that of the reference standard)” and the “Cholesterol efflux from cells treated with compounds, relative to reference standard” value ([1]; 1 mM) is reported as “− (—denotes compounds with a CEC of 75%-95% of that of the reference standard)”. For the same compound, the “Release … relative to reference standard” value ([2]; 0.1 mM) was 0 (0 denotes compounds releasing LDH in an amount of 96%-105% of that of the reference standard), the “Release … relative to reference standard” value ([2]; 0.3 mM) was 0 (0 denotes compounds releasing LDH in an amount of 96%-105% of that of the reference standard) and the “Release … relative to reference standard” value ([2]; 1 mM) was 0 (0 denotes compounds releasing LDH in an amount of 96%-105% of that of the reference standard).
`OCC(O)CO[C@H]1[C@H]2O[C@H]3[C@H](O)[C@@H](OCC(O)CO)[C@@H](O[C@H]4[C@H](O)[C@@H](OCC(O)CO)[C@@H](O[C@H]5[C@H](O)[C@@H](OCC(O)CO)[C@@H](O[C@H]6[C@H](O)[C@@H](OCC(O)CO)[C@@H](O[C@H]7[C@H](O)[C@@H](OCC(O)CO)[C@@H](O[C@H]8[C@H](O)[C@@H](OCC(O)CO)[C@@H](O[C@@H]([C@@H]1O)[C@@H](CO)O2)O[C@@H]8CO)O[C@@H]7CO)O[C@@H]6CO)O[C@@H]5CO)O[C@@H]4CO)O[C@@H]3CO` (stereo partly drawn) [Compound 3] was tested, and the “Cholesterol efflux from cells treated with compounds, relative to reference standard” value ([1]; 0.1 mM) was “− (—denotes compounds with a CEC of 75%-95% of that of the reference standard)”, the “Cholesterol efflux from cells treated with compounds, relative to reference standard” value ([1]; 0.3 mM) was “− (—denotes compounds with a CEC of 75%-95% of that of the reference standard)” and the “Cholesterol efflux from cells treated with compounds, relative to reference standard” value ([1]; 1 mM) was “− (—denotes compounds with a CEC of 75%-95% of that of the reference standard)”. For the same compound, the “Release … relative to reference standard” value ([2]; 0.1 mM) was “++ (++denotes compounds releasing LDH in an amount of >120% of that of the reference standard)”, the “Release … relative to reference standard” value ([2]; 0.3 mM) was “+ (+denotes compounds releasing LDH in an amount of 106%-120% of that of the reference standard)” and the “Release … relative to reference standard” value ([2]; 1 mM) was 0 (0 denotes compounds releasing LDH in an amount of 96%-105% of that of the reference standard).
